# Data taken from patent publication US20060229239A9, “Novel curcuminoid-factor VIIa constructs as suppressors of tumor growth and angiogenesis” (priority 2002, published 2006).
# Marks after values point to notes of the source that are not given here.
# Experiments:
# HUVECs [1] = assay: Neutral Red viability assay, HUVECs; type: cell-based, human; conditions: 24 hrs
# Method: (§1) HUVECs, MS-1 cells and SVR cells were cultured to confluence and agents were incubated for 24 hrs. Cell viability was determined by Neutral Red assays. Among synthetic curcumin analogs, A279L, A279U and EF-15 were not cytotoxic at 20 μM. MS-I cells were murine vascular endothelial cells which were immortalized by transfection of SV40 large T antigen but are non-maligant. However, when MS-1 cells were transfected with a ras mutant gene, cells were transformed to become malignant angiosarcoma cells, (SVR cells).
# MS-1 cells = assay: Neutral Red viability assay, MS-1 cells; type: cell-based, murine; conditions: 24 hrs
# Method: as §1
# SVR cells = assay: Neutral Red viability assay, SVR cells; type: cell-based, murine; conditions: 24 hrs
# Method: as §1
# RPMI-7951 = assay: Neutral Red (NR) viability test, human melanoma RPMI-7951; type: cell-based; conditions: Mean ± S.E.
# Method: (§2) The Neutral Red (NR) dye viability assay, instead of the Sulforhodamine B (SRB) assay, was used. In the NR viability assay, NR dye is taken up only by viable cells, while in the SRB viability assay, viable cells are fixed by trichloracetic acid (TCA) on the plate (thus, cells are killed), and the fixed cells are stained by SRB dye.
# (§3) At the termination of culture, medium was removed and 200 μl of fresh, warm medium containing 50 μg of NR/ml was added to each well in a 96-well plate. Cells were incubated at 37° for 30 mins, followed by two washes with 200 μl of PBS. The NR taken up by cells was dissolved by adding 200 μl of 0.5N HCI containing 35% ethanol. The amount of the dye in each well was read at 570 nm by an ELISA plate reader.
# MDA-MB-231 = assay: Neutral Red (NR) viability test, human breast cancer MDA-MB-231; type: cell-based; conditions: Mean ± S.E.
# Method: as §2, §3
# [2] = system: cells with or without tissue factor on the cell surface; assay: Cell killing in relation to tissue factor expression on the cell surface (summary); type: cell-based
# Text: One aspect of the present invention provides novel compositions comprising cytotoxic compounds such as synthetic antitumor and anti-angiogenesis curcumin analogs (curcuminoids) linked to a protein delivery vehicle that can deliver the cytotoxic compoun specifically to cancer cells and vascular endothelial cells having surface-bound tissue factor. Novel compositions of the present invention can comprise a curcuminoid covalently linked to a tether which may be, but is not limited to, a dicarboxylic acid such as succinate. The tether is covalently linked to a N-terminal amino acid of a peptidyl linker such as phenylalanine-phenylalanine-arginine, the C-terminal amino acid of which comprises a methylketone. […] Preferably, the curcuminoid-tether-linker will have bonded to an amino acid of the serine protease domain of the fVIIa, thereby blocking the procoagulating activity of the novel therapeutic composition. The present invention also provides methods of synthesis of cytotoxic compound-protein conjugates. The compositions and methods of the present invention may increase the efficacy of the cytotoxic agents and decrease their side effects by delivering the agents to specific target cells. […] The conjugate EF24-FFRck-fVIIa construct of the present invention kills cancer cell lines and vascular endothelial cells, such as HUVECs, that express tissue factor on the cell surface.
# normal human melanocytes = assay: NR viability test, normal human melanocytes (no tissue factor); type: cell-based; conditions: Mean ± S.D.
# Method: as §2, §3
# tumor cells = assay: NCI screening system, tumor cells; type: cell-based
# Method: Curcumin, EF24 and cisplatin were tested against tumor cells in the NCI screening system. Curcuminoids were also added to transformed breast cancer cells and the mean growth inhibitory concentrations determined, as shown in FIG. 5.
# DU145 = assay: SRB viability test, DU145 human prostate cancer cell line expressing tissue factor; type: cell-based; conditions: for O.D. 570 nm, SRB Viability Test: 48 hrs, Mean S.D.
# Method: DU145 cells were plated with 2×10^4 cells/100 μl/well in a 96 well plate and cultured overnight. The cells were cultured for 48 hrs. Cultures was terminated by adding 40% TCA to a final concentration of 10%. Cells were fixed in TCA at 4° for 1 hr, washed with tap water 5 times and air dried. Sulforhodamine B (SRB) solution (100 μl) at 0.4% (w/v) in 1% acetic acid was added to each well, and the cells were incubated for 10 mins at room temperature. After staining, unbound dye was removed by washing five times with 1% acetic acid and air dried. […] Assays were performed in triplicate or quadruplicate. An asterisk (*) indicates p<0.0001 by the Student t-test (two-tailed probability). The concentration of EF24-FFRck-fVIIa was estimated based on protein concentration.
# MCF10 = assay: NR viability test, MCF10 normal human breast luminal ductal cell line (no tissue factor); type: cell-based; conditions: Normal Breast Cells (MCF10), Mean ± S.D.
# Method: as §2, §3
# HUVECs [3] = assay: SRB viability test (NCI method), normal HUVECs not expressing tissue factor; type: cell-based, human; conditions: Mean ± S.D.
# Cell cytotoxicity assays = type: cell-based
# Method: Of several compounds examined, the succinic acid derivative aa (86% yield) was suitable since it retained 50% of the activity of EF24 in cell cytotoxicity assays. To synthesize the succinyl derivative aa of EF24, to a solution of EF24 (0.16 g, 0.5 mmol) in anhydrous CH2Cl2 (6 ml) was added succinic anhydride (0.057 g, 0.5 mmol) and Et3N (101 mg, 1 mmol). The mixture was stirred at room temperature for 3 hrs, diluted with CH2Cl2, washed twice with saturated NaHCO3 (2×10 ml) and brine, dried over anhydrous Na2SO4, and relieved of solvent by evaporation. The resulting solid was purified by flash chromatography using benzene/acetone/acetic acid (27:10:0.5) as the eluant to obtain the yellow solid aa ([…], mp 145° C., 86% yield). [drawing 15]
Structure (SMILES),"O.D. 570 nm, NR Viability Test (RPMI-7951; RPM17951, 1 pM)","O.D. 570 nm, NR Viability Test (RPMI-7951; RPM17951, 2 pM)","O.D. 570 nm, NR Viability Test (MDA-MB-231; MDA231, 1 pM)","O.D. 570 nm, NR Viability Test (MDA-MB-231; MDA231, 2 pM)",killing of cancer cells and normal cells regardless of tissue factor expression [2],"O.D 570 nm, NR Viability Test (normal human melanocytes; 0.8 pM)","O.D 570 nm, NR Viability Test (normal human melanocytes; 4 pM)","O.D. 570 nm, SRB Viability Test (DU145; DU145, 0.8 pM)","O.D. 570 nm, SRB Viability Test (DU145; DU145, 8 pM)","O.D 570 nm, NR Viability Test (MCF10; 0.8 pM)","O.D 570 nm, NR Viability Test (MCF10; 4 pM)","O.D. 490 nm, SRB Viability Test (HUVECs [3]; 0.8 pM)","O.D. 490 nm, SRB Viability Test (HUVECs [3]; 8 pM)",other results
"COc1cc(/C=C/C(=O)CC(=O)/C=C/c2ccc(O)c(OC)c2)ccc1O [Curcumin, diferuloylmethane]",,,,,,,,,,,,,,Neutral Red Viability Assay (% of Control) (HUVECs [1]; 1 μM): 103 % of Control; Neutral Red Viability Assay (% of Control) (HUVECs [1]; 20 μM): 21 % of Control; Neutral Red Viability Assay (% of Control) (MS-1 cells; 1 μM): 90 % of Control; Neutral Red Viability Assay (% of Control) (MS-1 cells; 20 μM): 3 % of Control; Neutral Red Viability Assay (% of Control) (SVR cells; 1 μM): 88 % of Control; Neutral Red Viability Assay (% of Control) (SVR cells; 20 μM): 4 % of Control
"O=C1/C(=C/c2ccccc2F)CNC/C1=C\c1ccccc1F [EF24, 3,5-Bis-(2-fluorobenzylidene)-piperidin-4-one]",0.220 ± 0.023,0.119 ± 0.018,0.172 ± 0.020,0.109 ± 0.014,indiscriminatingly kills,0.255 ± 0.009,0.119 ± 0.009,0.391 ± 0.041,0.053 ± 0.025*,0.104 ± 0.018,0.091 ± 0.007,0.136 ± 0.010,0.038 ± 0.010,"potency relative to cisplatin (tumor cells): about 10 times; effectiveness against tumor cells compared with cisplatin or curcumin (tumor cells; NCI screening system, FIG. 4): significantly more effective"
N=C(N)NCCC[C@H](NC(=O)[C@H](Cc1ccccc1)NC(=O)[C@@H](Cc1ccccc1)NC(=O)CCC(=O)N1C/C(=C\c2ccccc2F)C(=O)/C(=C/c2ccccc2F)C1)C(=O)CCl [EF24-FFRck],0.253 ± 0.018,0.247 ± 0.020,0.191 ± 0.013,0.171 ± 0.009,does not kill,0.252 ± 0.007,0.249 ± 0.015,0.389 ± 0.021,0.383 ± 0.027,0.101 ± 0.013,0.113 ± 0.003,0.152 ± 0.026,0.160 ± 0.038,"cell killing (DU145; EF24-FFRck alone, Table 2): does not kill any cells"
O=C(O)CCC(=O)N1C/C(=C\c2ccccc2F)C(=O)/C(=C/c2ccccc2F)C1 [aa],,,,,,,,,,,,,,activity retained relative to EF24 in cell cytotoxicity assays (Cell cytotoxicity assays): 50%
